Our source for the IC50 values is the Kinase Knowledgebase extract (Sharma et al. 2016).

This test deals with MAPK14 (human) (UniProt Q16539). Description: Inhibition of MAPK14 Kinase Activity.
MAPK14 (human), sequence (Q16539 whole entry, looked up): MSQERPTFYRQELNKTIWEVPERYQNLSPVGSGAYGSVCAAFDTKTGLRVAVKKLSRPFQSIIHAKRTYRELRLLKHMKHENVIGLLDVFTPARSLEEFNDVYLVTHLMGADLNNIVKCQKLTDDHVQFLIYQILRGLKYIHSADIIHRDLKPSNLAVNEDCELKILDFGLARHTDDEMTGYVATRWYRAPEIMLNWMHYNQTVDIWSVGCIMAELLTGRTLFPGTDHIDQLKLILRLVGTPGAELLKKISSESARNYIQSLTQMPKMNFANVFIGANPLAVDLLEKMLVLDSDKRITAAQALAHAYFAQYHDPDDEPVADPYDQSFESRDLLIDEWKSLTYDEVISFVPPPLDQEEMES
For orientation: IC50 means the midpoint of a concentration-inhibition curve. A higher IC50 goes with weaker potency in that assay. The compound `CCCCC(=O)Nc1cc(-c2c(-c3ccc(F)cc3)nc(SC)n2CCOC)ccn1` showed an IC50 of 83 nM. `COCCn1c(SC)nc(-c2ccc(F)cc2)c1-c1ccnc(NC(=O)CCc2ccccc2OC)c1` had an IC50 of 93 nM. The compound `COCCn1c(SC)nc(-c2ccc(F)cc2)c1-c1ccnc(NC(=O)CCC2CCCCC2)c1` had an IC50 of 196 nM. In turn, `COCCn1c(SC)nc(-c2ccc(F)cc2)c1-c1ccnc(NC(=O)Cc2ccccc2)c1` yielded an IC50 of 386 nM.

For `COCCn1c(SC)nc(-c2ccc(F)cc2)c1-c1ccnc(NC(=O)CCc2ccc(SC)cc2)c1`, the IC50 came to 254 nM. For `COCCn1c(SC)nc(-c2ccc(F)cc2)c1-c1ccnc(NC(=O)CCc2ccc(OC)c(OC)c2OC)c1` the value was 84 nM; for `COCCn1c(SC)nc(-c2ccc(F)cc2)c1-c1ccnc(NC(=O)CCc2cccc(OC)c2OC)c1`, 91 nM; for `COCCn1c(SC)nc(-c2ccc(F)cc2)c1-c1ccnc(NC(=O)C(C)Cc2ccccc2)c1` (stereo not given), 77 nM. For `COCCn1c(SC)nc(-c2ccc(F)cc2)c1-c1ccnc(NC(=O)C(C)(C)C)c1` the value was 1760 nM; for `COCCn1c(SC)nc(-c2ccc(F)cc2)c1-c1ccnc(NC(=O)c2ccccc2)c1`, 244 nM; for `COCCn1c(SC)nc(-c2ccc(F)cc2)c1-c1ccnc(NC(=O)C2CC2)c1`, 128 nM.

Compound `COCCn1c(SC)nc(-c2ccc(F)cc2)c1-c1ccnc(NC(=O)CC(C)c2ccccc2)c1` (stereo not given) returned an IC50 of 60 nM.

Consider `COCCn1c(SC)nc(-c2ccc(F)cc2)c1-c1ccnc(NC(=O)C2CCCCC2)c1`, for which the concentration for half-maximal inhibition (IC50) amounted to 156 nM. This IC50 lies about 2.6-fold higher than the previous one. Take `COCCn1c(SC)nc(-c2ccc(F)cc2)c1-c1ccnc(NC(=O)CCc2ccc(OC)c(OC)c2)c1`: the IC50 worked out at 216 nM. As for `COCCn1c(SC)nc(-c2ccc(F)cc2)c1-c1ccnc(NC(=O)Cc2ccc(OC)cc2)c1`, the figure is 213 nM.

In turn, `COCCn1c(SC)nc(-c2ccc(F)cc2)c1-c1ccnc(NC(=O)C2CCC2)c1` registered an IC50 of 116 nM. As for `COCCn1c(SC)nc(-c2ccc(F)cc2)c1-c1ccnc(NC(=O)C(C)Oc2ccccc2)c1` (stereo not given), the figure is 103 nM; as for `COCCn1c(SC)nc(-c2ccc(F)cc2)c1-c1ccnc(NC(=O)CCc2ccc(OC)cc2OC)c1`, 178 nM; as for `COCCn1c(SC)nc(-c2ccc(F)cc2)c1-c1ccnc(NC(=O)/C=C/c2ccccc2)c1`, 193 nM. The compound `COCCn1c(SC)nc(-c2ccc(F)cc2)c1-c1ccnc(NC(=O)CCCc2ccccc2)c1` showed an IC50 of 115 nM. The compound `COCCn1c(SC)nc(-c2ccc(F)cc2)c1-c1ccnc(NC(=O)c2ccc(OC)cc2)c1` displayed an IC50 of 392 nM.

Compound `COCCn1c(SC)nc(-c2ccc(F)cc2)c1-c1ccnc(NC(=O)C[C@@H](C)c2ccccc2)c1` showed an IC50 of 114 nM. This IC50 is about 3.4-fold lower than that of the compound before. In turn, `COCCn1c(SC)nc(-c2ccc(F)cc2)c1-c1ccnc(NC(=O)CCCCc2ccccc2)c1` had an IC50 of 115 nM.

Take `COCCn1c(SC)nc(-c2ccc(F)cc2)c1-c1ccnc(NC(=O)CC(C)C)c1`: the IC50 was 103 nM.

The compound `COCCn1c(SC)nc(-c2ccc(F)cc2)c1-c1ccnc(NC(=O)C[C@H](C)c2ccccc2)c1` had an IC50 of 133 nM. The compound `COCCn1c(SC)nc(-c2ccc(F)cc2)c1-c1ccnc(NC(=O)CCCc2ccc(OC)cc2)c1` had an IC50 of 97 nM. For `COCCn1c(SC)nc(-c2ccc(F)cc2)c1-c1ccnc(NC(=O)CCc2cc(OC)c(OC)c(OC)c2)c1` the value was 123 nM; for `COCCn1c(SC)nc(-c2ccc(F)cc2)c1-c1ccnc(NC(=O)[C@H]2C[C@@H]2c2ccccc2)c1`, 168 nM; for `COCCn1c(SC)nc(-c2ccc(F)cc2)c1-c1ccnc(NC(=O)CCc2ccc(S(C)(=O)=O)cc2)c1`, 220 nM.

Take `COCCn1c(SC)nc(-c2ccc(F)cc2)c1-c1ccnc(NC(=O)CC2CCCCC2)c1`: the IC50 is 219 nM. As for `COCCn1c(SC)nc(-c2ccc(F)cc2)c1-c1ccnc(NC(=O)CCc2cccc(OC)c2)c1`, the IC50 amounted to 93 nM. This IC50 is about 2.4-fold lower than that of the compound before.

In turn, `COCCn1c(SC)nc(-c2ccc(F)cc2)c1-c1ccnc(NC(=O)CCC(C)C)c1` registered an IC50 of 179 nM. For `COCCn1c(SC)nc(-c2ccc(F)cc2)c1-c1ccnc(NC(=O)C(Oc2ccccc2)C(C)C)c1` (stereo not given) the value was 195 nM; for `COCCn1c(SC)nc(-c2ccc(F)cc2)c1-c1ccnc(NC(=O)CCc2ccc(C)cc2)c1`, 90 nM; for `COCCn1c(SC)nc(-c2ccc(F)cc2)c1-c1ccnc(NC(=O)CC2CCCC2)c1`, 108 nM. For `COCCn1c(SC)nc(-c2ccc(F)cc2)c1-c1ccnc(NCCc2ccccc2)c1`, the IC50 worked out at 26 nM. In turn, `COCCn1c(SC)nc(-c2ccc(F)cc2)c1-c1ccnc(NC(=O)CCc2ccc(OC)cc2)c1` yielded an IC50 of 48 nM. In turn, `COCCn1c(SC)nc(-c2ccc(F)cc2)c1-c1ccnc(NC(=O)C2CCCC2)c1` gave an IC50 of 458 nM. `COCCn1c(SC)nc(-c2ccc(F)cc2)c1-c1ccnc(NC(C)=O)c1` came in with an IC50 of 108 nM. Regarding `COCCn1c(SC)nc(-c2ccc(F)cc2)c1-c1ccnc(NCC(C)c2ccccc2)c1` (stereo not given), the IC50 came to 35 nM. As for `COCCn1c(SC)nc(-c2ccc(F)cc2)c1-c1ccnc(NC(=O)CCC2CCCC2)c1`, the figure is 224 nM. Regarding `COCCn1c(SC)nc(-c2ccc(F)cc2)c1-c1ccnc(N)c1`, the IC50 was determined as 1420 nM. As for `COCCn1c(SC)nc(-c2ccc(F)cc2)c1-c1ccnc(NC(=O)CCc2ccccc2)c1`, the figure is 63 nM; as for `COCCn1c(SC)nc(-c2ccc(F)cc2)c1-c1ccnc(NC(=O)CCc2ccc(C(C)(C)C)cc2)c1`, 2450 nM; as for `CCC(C)C(=O)Nc1cc(-c2c(-c3ccc(F)cc3)nc(SC)n2CCOC)ccn1` (stereo not given), 311 nM.
